{"source": "patent US7771956B2", "about": "“Method for detecting the presence of a phospholipid” (Brigham & Women's Hospital, Inc., priority 2003, dated 2010)", "key": {"platelets [1]": {"system": "platelets", "test": "Lactadherin binding to A23187-stimulated platelets (flow cytometry)", "format": "cell-based", "conditions": "Platelet; 0.25 μM A23187 vs. unstimulated platelets; read-out: net increase of fluorescence (bound lactadherin)", "procedure": "We asked whether platelets have a stimulated state when they bind lactadherin but not annexin V, consistent with the hypothesis that platelets have the capacity to regulate PS exposure at a level less than 2.5% PS (FIG. 8A-C). Platelets were incubated with fluorescein labeled lactadherin and Alexa Fluor 647 labeled annexin V. Because competition of either protein for the other's binding sites was <20% at these concentrations (FIG. 7C, 7D) we utilized both proteins simultaneously. The gain on the flow cytometer was set so that the intrinsic fluorescence of unstimulated platelets placed the population in the lower left quadrant of the display (FIG. 8A). […] Comparison with the unstimulated state indicates a net increase of fluorescence to approximately 3-fold. (FIG. 8B). The cross-hair allows comparison of modal fluorescence values for resting platelets vs. stimulated platelets."}, "platelets [2]": {"system": "platelets", "test": "Loss of NBD-PS fluorescence from stimulated platelets (PS exposure)", "format": "cell-based", "conditions": "10 μM A23187, 8 min", "description": "In order to estimate the rate and extent of PS exposure on the platelet plasma membrane we utilized fluorescence-labeled PS (Reference 62). Prior reports indicate that platelets translocate NBD-PS to the inner leaflet of the plasma membrane, like unlabeled PS. When stimulated platelets transfer NBD-PS to the outer leaflet of the plasma membrane it is rapidly exchanged into delipidated albumin that is present in the buffer. Thus, translocation of NBD-PS to the outer plasma membrane causes a net loss in cell fluorescence. NBD-PS was loaded into membranes of resting platelets from donor vesicles prior to platelet purification. The rate and extent of platelet fluorescence loss provide an estimate of the rate and extent of plasma membrane PS exposure.\nDuring the first minute after addition of TRAP the fluorescence loss was 12±1.8% vs. 5±2.5% for control platelets. Stimulation with 10 μM A23187 led to the same rate of fluorescence loss during the first minute but the rate was maintained so that after 8 min. >90% of NBD fluorescence was lost (FIG. 12B inset)."}, "[3]": {"target": "T1, bovine lactadherin (fluorescein-labeled, purified from bovine milk) (Bos taurus, UniProt Q95114)", "T1 construct": "from tissue; host or cells: bovine milk", "T1 sequence (Q95114 19-427)": "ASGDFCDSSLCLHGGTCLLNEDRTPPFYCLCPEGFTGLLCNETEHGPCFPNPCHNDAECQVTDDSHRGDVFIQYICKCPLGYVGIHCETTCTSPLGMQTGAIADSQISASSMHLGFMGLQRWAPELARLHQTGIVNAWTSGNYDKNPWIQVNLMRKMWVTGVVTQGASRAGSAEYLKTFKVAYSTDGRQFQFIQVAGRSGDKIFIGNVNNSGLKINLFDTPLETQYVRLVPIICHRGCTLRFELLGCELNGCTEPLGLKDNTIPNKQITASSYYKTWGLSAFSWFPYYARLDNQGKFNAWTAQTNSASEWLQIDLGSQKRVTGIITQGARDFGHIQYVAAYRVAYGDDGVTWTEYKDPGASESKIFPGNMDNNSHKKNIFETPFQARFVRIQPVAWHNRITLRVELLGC", "test": "Equilibrium binding of fluorescein-labeled lactadherin to lipospheres (membranes on glass microspheres, flow cytometry)", "conditions": "for binding of lactadherin: lipospheres with 2% synthetic dioleoyl lipid, 20% PE, balance PC, FIG. 5A", "procedure": "(§1) Lactadherin was purified from bovine milk as previously described (Reference 1). Lactadherin, 0.2 mg in 0.2 ml phosphate-buffered saline, was concentrated 10-fold by ultrafiltration with a Centricon YM-10 (Millipore, Bedford, Mass.) followed by dilution to the starting concentration into 0.1 M sodium carbonate buffer, pH 9.0. Fluorescein isothiocyanate (Molecular Probes, Eugene, Oreg.) 6 μl of 10 mg/ml solution in DMSO, was added to lactadherin and the mixture was incubated for one hour at RT in the dark. Free fluorescein was removed by gel filtration using a micro spin column equilibrated with 0.1 M sodium carbonate, 0.1 M betaine, 0.004% Tween-80, pH 9.0 (FluoReporter FITC Protein Labeling Kit, Molecular Probes, Eugene, Oreg.). Fluorescein-labeled lactadherin was concentrated approx. 10-fold by ultrafiltration using a Centricon YM-10, and diluted to approximately the original concentration in 0.15 M NaCl, 50 mM Tris-HCl, pH 7.5. Labeling efficiency was judged by comparison of absorbance at 490 nm to absorbance at 280 nm (correcting for fluorescein absorbance at 280 nm).\nGlass microspheres of 1.6 μm nominal diameter (Duke Scientific, Palo Alto, Calif.) were cleaned, size-restricted and covered with a phospholipid bilayer as previously described (Reference 17). Membranes supported by glass microspheres were washed three times in 0.15 M NaCl, 0.02 M Tris-HCl, 0.1% defatted bovine albumin, 10 μM egg PC as sonicated vesicles; stored at 4° C.; and used within 8 hours of synthesis. Fluorescein-labeled factor VIII (4 nM) was incubated with lactadherin or annexin V for 15 min at room temperature, the mixture was added to lipospheres for an additional 10 minutes, and membrane-bound fVIII was measured by flow cytometry. This procedure was performed on 150 μl aliquots with an approximate liposphere concentration of 1×10^6/ml using a Becton Dickinson FACSCalibur flow cytometer. Data acquisition was triggered by forward light scatter with all photomultipliers in the log mode. […] Mean log fluorescence was converted to linear fluorescence for values depicted in the figures. Only experiments in which the fluorescence histogram indicated a log normal distribution, as judged by inspection, were analyzed quantitatively. […]\nThe equilibrium binding of lactadherin to lipospheres was fitted by non-linear, least squares data analysis using the standard binding model (assuming a single class of binding sites and that the fraction of bound lactadherin was small at each concentration evaluated). […]\nFluorescein-labeled lactadherin interacted with phospholipid bilayers supported by glass microspheres (lipospheres). […] After 10 minutes, we measured bound lactadherin using flow cytometry (FIG. 1A). […]"}, "[4]": {"target": "T1, bovine lactadherin (fluorescein-labeled, purified from bovine milk)", "test": "Competition of soluble head group for fluorescein-lactadherin binding to lipospheres (flow cytometry)", "conditions": "for inhibition of lactadherin binding: concentrations as high as 0.35 M", "quoted_text": "Flow Cytometry Phospholipid Binding Assay\nGlass microspheres of 1.6 μm nominal diameter (Duke Scientific, Palo Alto, Calif.) were cleaned, size-restricted and covered with a phospholipid bilayer as previously described (Reference 17). Membranes supported by glass microspheres were washed three times in 0.15 M NaCl, 0.02 M Tris-HCl, 0.1% defatted bovine albumin, 10 μM egg PC as sonicated vesicles; stored at 4° C.; and used within 8 hours of synthesis. […] This procedure was performed on 150 μl aliquots with an approximate liposphere concentration of 1×10^6/ml using a Becton Dickinson FACSCalibur flow cytometer. Data acquisition was triggered by forward light scatter with all photomultipliers in the log mode. Noise was reduced during analysis by eliminating events with forward and side scatter values different from those characteristic of the lipospheres. Mean log fluorescence was converted to linear fluorescence for values depicted in the figures. Only experiments in which the fluorescence histogram indicated a log normal distribution, as judged by inspection, were analyzed quantitatively. Flow cytometry experiments were performed in 0.14 M NaCl, 0.02 M Trizma-HCl, 0.1% bovine albumin, pH 7.5 with CaCl2 as specified for individual experiments.\nFluorescein-labeled lactadherin was incubated with 10^6 lipospheres/ml in Tris-buffered saline, 1.5 mM CaCl2, 0.1% BSA for 10 min. prior to evaluation of bound lactadherin by flow cytometry. The final concentrations of lactadherin were varied to estimate the affinity and stoichiometry of bound lactadherin.\nTo estimate the stereoselective affinity of lactadherin for the L-serine containing head group of Ptd-L-Ser, we performed binding inhibition studies (FIG. 5B)."}, "[5]": {"target": "T1, bovine lactadherin (fluorescein-labeled, purified from bovine milk)", "test": "Competition of phospholipid vesicles with lipospheres for fluorescein-labeled lactadherin", "format": "binding", "conditions": "for support of lactadherin binding: vesicles lacking Ptd-L-Ser, FIG. 4B; for effect on number of binding sites or affinity for lactadherin: extruded vesicles, 0-20% PE, 1% Ptd-L-Ser", "procedure": "as §1\nPhospholipid vesicles were prepared by evaporating chloroform from the desired phospholipids, resuspending in methylene chloride and re-evaporating twice under argon. Large multilamellar vesicles were prepared by gently swirling tris-buffered saline (50 mM Tris, 150 mM NaCl, pH 7.4) over the dried lipid suspension until all lipid was suspended. Some of the large multilamellar vesicles were then utilized to prepare small unilamellar vesicles by sonication in a high intensity bath sonicator (Laboratory Supplies, Inc. Hicksville, N.Y.) under argon until visually clear (approx. 20 min.). Large unilamellar vesicles were made by extruding large multilamellar vesicle suspensions 20 times through […] polycarbonate membranes (Millipore, Bedford, Mass.) in a High Pressure Extrusion Device (Sciema Technical Services, Vancouver, BC, Canada) under argon as described previously (Reference 39). Phospholipid concentration was determined by phosphorus assay (Reference 40). Vesicles were used fresh, or 1 ml aliquots were quick-frozen in liquid nitrogen, stored at −80° C., and thawed at 37° C.\nGlass microspheres of 1.6 μm nominal diameter (Duke Scientific, Palo Alto, Calif.) were cleaned, size-restricted and covered with a phospholipid bilayer as previously described (Reference 17). Membranes supported by glass microspheres were washed three times in 0.15 M NaCl, 0.02 M Tris-HCl, 0.1% defatted bovine albumin, 10 μM egg PC as sonicated vesicles; stored at 4° C.; and used within 8 hours of synthesis. Fluorescein-labeled factor VIII (4 nM) was incubated with lactadherin or annexin V for 15 min at room temperature, the mixture was added to lipospheres for an additional 10 minutes, and membrane-bound fVIII was measured by flow cytometry. This procedure was performed on 150 μl aliquots with an approximate liposphere concentration of 1×10^6/ml using a Becton Dickinson FACSCalibur flow cytometer. Data acquisition was triggered by forward light scatter with all photomultipliers in the log mode. Noise was reduced during analysis by eliminating events with forward and side scatter values different from those characteristic of the lipospheres. Mean log fluorescence was converted to linear fluorescence for values depicted in the figures. Only experiments in which the fluorescence histogram indicated a log normal distribution, as judged by inspection, were analyzed quantitatively. […]"}, "[6]": {"target": "T2, Recombinant human factor VIII (Homo sapiens, UniProt P00451)", "T2 construct": "Gift from D. Pittman, Genetics Institute, Cambridge, Mass", "T2 sequence (P00451 20-2351)": "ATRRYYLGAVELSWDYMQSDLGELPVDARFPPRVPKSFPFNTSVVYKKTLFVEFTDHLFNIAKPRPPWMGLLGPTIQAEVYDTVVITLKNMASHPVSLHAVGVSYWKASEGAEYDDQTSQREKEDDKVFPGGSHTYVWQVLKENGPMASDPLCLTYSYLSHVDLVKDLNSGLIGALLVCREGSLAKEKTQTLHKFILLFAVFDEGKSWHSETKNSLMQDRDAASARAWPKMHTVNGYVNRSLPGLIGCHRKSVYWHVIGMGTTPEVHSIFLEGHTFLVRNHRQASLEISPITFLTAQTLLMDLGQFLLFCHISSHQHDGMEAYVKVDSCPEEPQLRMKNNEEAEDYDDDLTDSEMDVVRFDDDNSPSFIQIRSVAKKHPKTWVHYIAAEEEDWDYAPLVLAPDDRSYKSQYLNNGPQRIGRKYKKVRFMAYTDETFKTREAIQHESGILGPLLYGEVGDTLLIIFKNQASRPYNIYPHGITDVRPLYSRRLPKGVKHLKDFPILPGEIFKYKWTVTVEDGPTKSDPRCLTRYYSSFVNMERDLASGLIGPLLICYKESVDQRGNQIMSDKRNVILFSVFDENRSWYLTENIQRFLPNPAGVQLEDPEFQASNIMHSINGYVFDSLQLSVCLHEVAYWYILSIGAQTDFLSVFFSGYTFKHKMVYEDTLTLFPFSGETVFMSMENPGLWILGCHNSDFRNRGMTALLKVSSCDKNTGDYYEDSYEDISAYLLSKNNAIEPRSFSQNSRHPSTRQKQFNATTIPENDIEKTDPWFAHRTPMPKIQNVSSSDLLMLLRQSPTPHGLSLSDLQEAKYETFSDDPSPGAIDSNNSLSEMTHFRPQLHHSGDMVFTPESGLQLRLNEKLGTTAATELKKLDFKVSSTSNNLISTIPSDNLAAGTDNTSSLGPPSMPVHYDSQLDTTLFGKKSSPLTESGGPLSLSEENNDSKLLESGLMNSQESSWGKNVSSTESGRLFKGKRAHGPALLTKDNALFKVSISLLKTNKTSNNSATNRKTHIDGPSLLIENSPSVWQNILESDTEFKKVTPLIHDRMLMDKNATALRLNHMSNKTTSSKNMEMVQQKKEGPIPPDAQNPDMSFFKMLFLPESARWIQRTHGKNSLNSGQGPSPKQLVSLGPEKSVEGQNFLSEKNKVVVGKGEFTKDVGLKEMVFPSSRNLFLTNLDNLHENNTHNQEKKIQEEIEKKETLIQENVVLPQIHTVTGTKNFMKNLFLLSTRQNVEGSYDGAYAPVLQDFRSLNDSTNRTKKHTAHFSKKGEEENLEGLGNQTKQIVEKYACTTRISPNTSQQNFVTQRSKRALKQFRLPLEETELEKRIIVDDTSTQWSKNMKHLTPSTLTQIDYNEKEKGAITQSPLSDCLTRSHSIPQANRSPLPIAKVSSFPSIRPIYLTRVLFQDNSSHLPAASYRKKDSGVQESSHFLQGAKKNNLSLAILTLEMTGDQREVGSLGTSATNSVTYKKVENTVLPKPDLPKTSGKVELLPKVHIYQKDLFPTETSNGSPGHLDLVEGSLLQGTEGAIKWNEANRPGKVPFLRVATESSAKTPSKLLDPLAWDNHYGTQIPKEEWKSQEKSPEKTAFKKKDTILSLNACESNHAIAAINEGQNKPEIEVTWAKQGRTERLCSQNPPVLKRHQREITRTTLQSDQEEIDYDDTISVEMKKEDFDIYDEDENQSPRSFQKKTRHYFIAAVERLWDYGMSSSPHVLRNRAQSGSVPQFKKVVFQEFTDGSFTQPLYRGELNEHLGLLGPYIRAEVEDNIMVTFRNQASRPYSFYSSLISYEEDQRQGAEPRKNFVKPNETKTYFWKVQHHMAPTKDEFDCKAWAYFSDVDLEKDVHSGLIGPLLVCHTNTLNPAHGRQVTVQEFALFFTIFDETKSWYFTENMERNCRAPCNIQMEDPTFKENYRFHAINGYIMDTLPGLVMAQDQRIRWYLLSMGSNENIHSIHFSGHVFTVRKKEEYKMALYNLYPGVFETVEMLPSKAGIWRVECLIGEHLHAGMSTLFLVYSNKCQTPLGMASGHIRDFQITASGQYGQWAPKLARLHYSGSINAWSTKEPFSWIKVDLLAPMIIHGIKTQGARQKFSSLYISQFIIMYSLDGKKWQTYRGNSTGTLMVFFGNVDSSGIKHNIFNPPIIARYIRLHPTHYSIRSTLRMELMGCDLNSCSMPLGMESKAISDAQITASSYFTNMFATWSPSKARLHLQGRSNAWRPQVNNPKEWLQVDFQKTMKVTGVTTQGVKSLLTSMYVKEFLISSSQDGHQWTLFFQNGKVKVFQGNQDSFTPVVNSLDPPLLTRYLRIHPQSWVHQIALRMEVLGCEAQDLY", "test": "Binding of factor VIII to lipospheres", "conditions": "lipospheres containing 4% Ptd-L-Ser; read-out: dissociation constant of factor VIII for lipospheres", "description": "Human factor V was obtained from Haematologic Technologies Inc. (Burlington, Vt.). Recombinant human factor VIII was a gift from D. Pittman of Genetics Institute, Cambridge, Mass. Bovine brain phosphatidylserine (Ptd-L-Ser), egg yolk phosphatidylethanolamine (PE), bovine liver phosphatidylinositol, egg sphingomyelin, egg phosphatidylcholine (PC) and dioleoyl PC were obtained from Avanti Polar Lipids (Alabaster, AL). Phospholipase D from streptomyces, phospho-L-serine phospho-D-serine, L-serine and D-serine were obtained from Sigma.\nFactor VIII and factor V were labeled with fluorescein maleimide (Molecular Probes, Eugene, Oreg.) as previously described (References 17 and 37). Protein concentration of factor VIII was determined using a Micro-BCA Assay (Pierce, Rockford, Ill.) using bovine albumin as a standard.\nGlass microspheres of 1.6 μm nominal diameter (Duke Scientific, Palo Alto, Calif.) were cleaned, size-restricted and covered with a phospholipid bilayer as previously described (Reference 17). […] Fluorescein-labeled factor VIII (4 nM) was incubated with lactadherin or annexin V for 15 min at room temperature, the mixture was added to lipospheres for an additional 10 minutes, and membrane-bound fVIII was measured by flow cytometry. […] Mean log fluorescence was converted to linear fluorescence for values depicted in the figures. […]"}}, "note": "Entries after “also recorded” stand apart in the source; their conditions may differ."}
{"compound": "CNc1ccc2oc(C[C@H]3O[C@@]4(CC[C@H]3C)O[C@H]([C@H](C)C(=O)c3ccc[nH]3)[C@H](C)C[C@H]4C)nc2c1C(=O)O", "note": "[A23187]", "values": [{"measurement": "fold induction at 0.25 µM", "setting": "platelets [1]", "result": "~3"}, {"measurement": "NBD fluorescence lost", "setting": "platelets [2]", "result": "> 90", "unit": "%"}]}
{"compound": "CCCCCCCC/C=C\\CCCCCCCC(=O)OC[C@H](COP(=O)(O)OC[C@@H](N)C(=O)O)OC(=O)CCCCCCC/C=C\\CCCCCCCC", "note": "[dioleoyl Ptd-D-Ser]", "values": [{"measurement": "binding of lactadherin", "setting": "[3]; listed as Ptd-D-Ser", "result": "did not support binding of lactadherin above the level supported by control membranes of PE:PC 20:80"}]}
{"compound": "CCCCCCCC/C=C\\CCCCCCCC(=O)OC[C@H](COP(=O)(O)OC[C@H](N)C(=O)O)OC(=O)CCCCCCC/C=C\\CCCCCCCC", "note": "[dioleoyl Ptd-L-Ser]", "values": [{"measurement": "binding of lactadherin", "setting": "[3]", "result": "Lactadherin bound to membranes; also recorded: bound lactadherin with high affinity, comparable to Ptd-L-Ser from biologic sources"}]}
{"compound": "N[C@H](COP(=O)(O)O)C(=O)O", "note": "[phospho-D-serine]", "values": [{"measurement": "inhibition of lactadherin binding", "setting": "[4]", "result": "≤ 25", "unit": "%"}, {"measurement": "fold less effective as an inhibitor (vs. phospho-L-serine)", "setting": "[4]; inhibition of lactadherin binding to lipospheres", "result": "at least 4 fold"}]}
{"compound": "phosphate", "values": [{"measurement": "inhibition of lactadherin binding", "setting": "[4]", "result": "≤ 25", "unit": "%"}]}
{"compound": "phosphatidylcholine [PC]", "values": [{"measurement": "support of lactadherin binding", "setting": "[5]", "result": "supported low affinity lactadherin binding"}]}
{"compound": "phosphatidylethanolamine [PE]", "values": [{"measurement": "effect on number of binding sites or affinity for lactadherin", "setting": "[5]", "result": "did not influence the apparent number of binding sites or affinity for lactadherin"}, {"measurement": "effect on number of binding sites or affinity for lactadherin", "setting": "[5]; listed as phosphatidylethanolamine", "result": "did not enhance the apparent affinity or number of lactadherin binding sites"}]}
{"compound": "phosphatidylinositol", "values": [{"measurement": "support of lactadherin binding", "setting": "[5]", "result": "does not support high affinity binding of lactadherin; also recorded: supported low affinity binding of lactadherin"}]}
{"compound": "phosphatidylserine [Ptd-L-Ser]", "values": [{"measurement": "apparent KD, 1% Ptd-L-Ser vs. 4% Ptd-L-Ser membranes (fold difference)", "setting": "[3]; lipospheres of 1% vs. 4% Ptd-L-Ser", "result": "≤ 2", "unit": "fold"}, {"measurement": "Kd", "setting": "[3]; membranes Ptd-L-Ser:PE:PC 4:20:76 on glass microspheres, 10 min, read-out: KD (apparent)", "result": "3.3 ± 0.4", "unit": "nM"}, {"measurement": "Kd", "setting": "[5]; sonicated vesicles of 16% Ptd-L-Ser, n<60, read-out: KD (lower limit)", "result": "> 0.2", "unit": "nM"}, {"measurement": "Kd", "setting": "[6]", "result": 4.8, "unit": "nM"}]}
